# Test results reported in patent US20250161273A1, “PHARMACEUTICAL COMPOSITION COMPRISING DIPHENYLDIAZOLE DERIVATIVES AND METHODS OF USE” (MODAG GMBH, priority 2022, published 2025).
# Key:
# [1] = animal studies, cited from earlier work
# [2] = phase 1 first-in-human trial, safety and tolerability; format: in vivo
# Protocol: Anle138b was studied in a single-centre, double-blind, randomised, placebo-controlled single ascending dose (SAD) and multiple ascending dose (MAD) study in healthy subjects. Eligible participants were randomly assigned (1:1 for sentinel subjects and 1:5 for main group) to placebo or anle138b (dose ranging from 50 mg to 300 mg per day), respectively. In addition, the effect of food on the pharmacokinetics (PK) of anle138b in healthy subjects was examined at doses of 150 mg per day (FES, food effect study). Participants were randomized to treatment sequence (fed→fasted) or (fasted→fed). Treatment for the SAD, MAD and FES arms of the study was administered orally in hard gelatin capsules containing either 10 mg or 30 mg of anle138b with excipient (i.e., lauroyl polyoxyl-32 glycerides) or excipient only. The primary endpoints were safety and tolerability, the secondary endpoint was pharmacokinetics. Data from all randomized individuals were evaluated. [Clinicaltrials.gov-identifier: NCT04208152. EudraCT-number: 2019-004218-33] […]
# In SAD, subjects received a single dose of anle138b or placebo after fasting from all food and drink (except water) for a minimum of 8 h prior to dosing. […] The following data were analyzed: Adverse events, vital signs, safety laboratory, ECG, physical examinations, plasma concentrations of anle138b with interim PK parameter estimations (Tmax, Cmax, AUC0-24, AUC0-tau, AUC0-last and T½, where applicable). […]
# Outcome measures: The primary objective was to assess the safety and tolerability of single (SAD) and multiple (MAD) ascending doses of anle138b to healthy subjects in the fasted state and to assess the safety and tolerability of single doses of anle138b in both the fasted and fed state (FES). To this end, adverse events (AEs), clinical laboratory tests, vital signs, electrocardiograms (ECGs), QT interval corrected for heart rate using Fridericia's formula (QTcF), and physical examination findings were recorded. […]
# [3] = rat formulation study, PK after single oral administration; format: in vivo; settings: Sprague-Dawley, plasma, male rats, 10 mg/kg single oral, read-out: Tmax, all four formulations
# Protocol: A rat study was undertaken to assess the pharmacokinetics of anle138b in male Sprague Dawley rats (n=3/arm) following single oral administration of different formulations of anle138b, as follows, in Table 5.
# Male Sprague Dawley (SD) rats (n=3/formulation) sourced from Charles River Italia were kept for 5 days acclimatization. Feeding regimen was ad libitum except on the day of dosing when the food was supplied 4 hours post dosing, having been removed the evening beforehand. Animals were orally dosed with anle138b (10 mg/kg) formulated as above. An individual serial plasma profile was drawn from each animal over a period of 24 hours after dosing.
# The dose formulations were administered orally via gastric gavage (2 ml/kg); any remaining formulation after dosing was discarded.
# After oral administration, blood samples were collected from the tail vein of each rat at the time-points detailed: Pre dose, 0.5, 1, 2, 4, 6, 8 and 24 hours after dosing […]
# PK profiling was performed by non-compartmental analysis using Phoenix™ WinNonlin. […] The maximum observed peak plasma concentration (Cmax) and the time at which it was observed (Tmax) were determined by inspection of the observed data.
# The relative bioavailability ([…]) of anle138b between dose formulations was calculated by comparing systemic exposure (AUC0-t), and are reported rounded to at least 2 significant figures. […]
# oligomer accumulation = settings: range of different mouse models; cited from earlier work
# monomer = settings: cited from earlier work
smiles,measurement,setting,value
"Brc1cccc(-c2cc(-c3ccc4c(c3)OCO4)n[nH]2)c1 [anle138b, 3-(1,3-benzodioxol-5-yl)-5-(3-bromophenyl)-1H-pyrazole]",oral bioavailability (in words),[1],high oral bioavailability
same,levels in the brain relative to plasma,[1]; oral,5 fold
same,safety and tolerability (in words),"[2]; food effect study, 150 mg, fasted and fed conditions",safe and well tolerated
same,serious adverse events (in words),"[2]; healthy subjects, any part of the study",no serious adverse events
same,safety and tolerability (in words),"[2]; healthy subjects, up to 300 mg daily for up to 7 consecutive days",safe and well tolerated at all dose levels
same,Tmax,[3],2 to 8 h
same,effect in mouse models in vivo (in words),oligomer accumulation,"strongly inhibited oligomer accumulation, neuronal degeneration, and disease progression"
same,binding to the monomer (in words),monomer,does not bind to the monomer
